In PMC8159961, “Exploring protein hotspots by optimized fragment pharmacophores” (Nature Communications, 2021):
pEC50, pIC50, pKi: −log10 of the molar value. Where “and” joins values, the source holds several entries; their conditions need not be identical. Identical values can stand only once. Entries after “also recorded” stand apart in the source; their conditions may differ. Like-named read-outs stand apart in the source and are kept apart here.

Experiments:
[1] = target: T1, SARS-CoV-2 NSP3 macrodomain (Severe acute respiratory syndrome coronavirus 2, UniProt P0DTD1); test: NSP3 macrodomain HTRF assay, displacement of ADP-ribose-conjugated biotin peptide; format: binding; details: for activity in the NSP3 enzyme assay (in words): up to 5 mM concentration
SARS-CoV-2 = test: microbe, parasite or virus in culture; format: cell-based; details: for inhibition at 1000 µM: Severe acute respiratory syndrome coronavirus 2, Vero C1008, 1000 uM; for pEC50: Vero E6 cells, 48 h post infection, read-out: EC50, blocking SARS-CoV-2 replication; for antiviral activity in the cellular assay (in words): infected Vero E6 cells
[2] = target: T1, SARS-CoV-2 NSP3 macrodomain; test: X-ray fragment screening (XChem, crystal soaking); format: binding
human 5-HT1A receptor = target: T2, human 5-HT1A receptor (Homo sapiens, UniProt P08908); test: GPCR radioligand binding assay, [3H]-8-OH-DPAT displacement, HEK293 membranes
T2 construct: expressed in transfected cells
T2 sequence (P08908 1-422): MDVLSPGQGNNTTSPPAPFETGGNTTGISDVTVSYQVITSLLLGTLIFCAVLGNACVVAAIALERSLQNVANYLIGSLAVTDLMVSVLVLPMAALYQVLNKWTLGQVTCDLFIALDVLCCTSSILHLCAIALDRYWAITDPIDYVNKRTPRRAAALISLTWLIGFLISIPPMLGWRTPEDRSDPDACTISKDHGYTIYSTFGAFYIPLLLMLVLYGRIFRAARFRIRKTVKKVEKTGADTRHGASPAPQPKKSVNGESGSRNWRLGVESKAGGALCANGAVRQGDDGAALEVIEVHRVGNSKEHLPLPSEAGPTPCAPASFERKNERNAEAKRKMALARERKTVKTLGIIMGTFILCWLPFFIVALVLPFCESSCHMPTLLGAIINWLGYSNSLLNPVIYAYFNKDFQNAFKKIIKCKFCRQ

human 5-HT6 receptor = target: T3, human 5-HT6 receptor (Homo sapiens, UniProt P50406); test: GPCR radioligand binding assay, [3H]-LSD displacement, HEK293 membranes
T3 construct: expressed in transfected cells

human 5-HT7b receptor = target: T4, human 5-HT7b receptor (Homo sapiens, UniProt P34969); test: GPCR radioligand binding assay, [3H]-5-CT displacement, HEK293 membranes
T4 construct: expressed in transfected cells

human thrombin = target: T5, human thrombin (Homo sapiens, UniProt P00734); test: Protease inhibitory assay, chromogenic substrate S-2238; format: biochemical
T5 construct: human thrombin; purchased Sigma-Aldrich

bovine factor Xa = target: T6, bovine factor Xa (Bos taurus, UniProt P00743); test: Protease inhibitory assay, chromogenic substrate S-2222; format: biochemical; details: 1 = hit, 0 = no hit; screening at 200 µM
T6 construct: bovine factor Xa, Chromogenix, 2 nkat/mL; purchased Chromogenix

recombinant SETD2 = target: T7, recombinant SETD2 (Homo sapiens, UniProt Q9BYW2); test: SETD2 Chemiluminescence assay (H3K36 tri-methylation); format: biochemical; details: 1 = hit, 0 = no hit
T7 construct: purchased BPS Bioscience 52060
T7 sequence (Q9BYW2 1418-1714 limits assumed): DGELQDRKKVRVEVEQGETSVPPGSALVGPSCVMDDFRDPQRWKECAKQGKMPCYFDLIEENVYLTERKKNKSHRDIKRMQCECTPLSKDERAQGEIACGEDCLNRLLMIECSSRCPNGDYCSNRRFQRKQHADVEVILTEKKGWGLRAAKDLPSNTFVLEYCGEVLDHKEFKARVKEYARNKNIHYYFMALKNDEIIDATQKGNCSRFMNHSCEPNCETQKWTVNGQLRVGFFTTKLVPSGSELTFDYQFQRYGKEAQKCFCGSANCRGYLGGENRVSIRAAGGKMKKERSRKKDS

[3] = replicates, read-out: Inhibition (%) of viral copy numbers
[4] = 10 µM, read-out: 5-HT1A % Inhibition by plate position
[5] = 1 = hit, 0 = no hit, tested at 10 µM, hit = 50% or stronger inhibition
[6] = 5-HT1A, average of exp_1 and exp_2, read-out: %inh 5-HT1A average
[7] = 5-HT1A, average, values below 0 and above 100% were set as 0 and 100, read-out: %inh 5-HT1A corrected*
[8] = 5-HT1A, replicate exp_1, read-out: %inh 5-HT1A exp_1
[9] = 5-HT1A, replicate exp_2, read-out: %inh 5-HT1A exp_2
[10] = 10 µM, read-out: 5-HT6 % Inhibition by plate position
[11] = 5-HT6, average of exp_1 and exp_2, read-out: %inh 5-HT6 average
[12] = 5-HT6, average, values below 0 and above 100% were set as 0 and 100, read-out: %inh 5-HT6 corrected*
[13] = 5-HT6, replicate exp_1, read-out: %inh 5-HT6 exp_1
[14] = 5-HT6, replicate exp_2, read-out: %inh 5-HT6 exp_2
[15] = 10 µM, read-out: 5-HT7 % Inhibition by plate position
[16] = 5-HT7, average of exp_1 and exp_2, read-out: %inh 5-HT7 average
[17] = 5-HT7, average, values below 0 and above 100% were set as 0 and 100, read-out: %inh 5-HT7 corrected*
[18] = 5-HT7, replicate exp_1, read-out: %inh 5-HT7 exp_1
[19] = 5-HT7, replicate exp_2, read-out: %inh 5-HT7 exp_2

T4 sequence (P34969 1-432): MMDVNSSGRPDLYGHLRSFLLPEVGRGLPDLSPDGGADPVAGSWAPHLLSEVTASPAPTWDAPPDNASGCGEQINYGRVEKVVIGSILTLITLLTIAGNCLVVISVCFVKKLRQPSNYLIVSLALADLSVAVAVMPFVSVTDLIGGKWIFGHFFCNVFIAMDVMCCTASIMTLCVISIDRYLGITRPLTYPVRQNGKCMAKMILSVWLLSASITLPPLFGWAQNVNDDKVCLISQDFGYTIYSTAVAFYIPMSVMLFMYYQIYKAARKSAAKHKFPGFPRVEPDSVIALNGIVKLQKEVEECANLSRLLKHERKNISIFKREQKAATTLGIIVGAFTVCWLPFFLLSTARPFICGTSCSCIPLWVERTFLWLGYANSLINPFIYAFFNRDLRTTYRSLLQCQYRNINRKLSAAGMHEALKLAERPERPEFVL
T3 sequence (P50406 whole entry): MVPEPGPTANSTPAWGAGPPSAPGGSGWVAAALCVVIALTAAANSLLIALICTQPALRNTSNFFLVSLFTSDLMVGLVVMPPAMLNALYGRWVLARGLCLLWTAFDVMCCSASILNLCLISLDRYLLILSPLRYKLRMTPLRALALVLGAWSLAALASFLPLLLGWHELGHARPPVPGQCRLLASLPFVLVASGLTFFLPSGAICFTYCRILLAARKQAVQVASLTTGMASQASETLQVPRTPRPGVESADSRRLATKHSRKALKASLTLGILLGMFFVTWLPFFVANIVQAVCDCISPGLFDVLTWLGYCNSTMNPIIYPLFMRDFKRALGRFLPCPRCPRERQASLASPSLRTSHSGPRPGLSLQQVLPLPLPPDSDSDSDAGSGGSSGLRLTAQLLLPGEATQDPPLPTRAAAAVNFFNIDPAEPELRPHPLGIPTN
T6 sequence (P00743 234-492 limits assumed): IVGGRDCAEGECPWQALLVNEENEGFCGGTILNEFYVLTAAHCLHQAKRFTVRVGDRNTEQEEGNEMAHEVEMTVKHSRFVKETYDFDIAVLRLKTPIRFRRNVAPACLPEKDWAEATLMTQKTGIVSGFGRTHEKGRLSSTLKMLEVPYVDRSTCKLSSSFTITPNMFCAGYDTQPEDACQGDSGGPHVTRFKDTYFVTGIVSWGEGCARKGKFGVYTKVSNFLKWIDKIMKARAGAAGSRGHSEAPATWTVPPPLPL
T6 sequence (P00743 41-180 partner limits assumed): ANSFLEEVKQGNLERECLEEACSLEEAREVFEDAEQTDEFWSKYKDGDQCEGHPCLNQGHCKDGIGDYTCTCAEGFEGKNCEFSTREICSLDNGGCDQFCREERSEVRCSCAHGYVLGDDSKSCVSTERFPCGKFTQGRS

## CC1C(=O)NC(=O)N1c1ccc(Cl)cc1 (stereo not shown) [SX051]
[1]; HTRF assay
  activity in the NSP3 enzyme assay (in words): no activity
SARS-CoV-2; 10 uM, replicates
  Inhibition (%) of viral copy numbers: 0% and 9.716% and 1.026%
  viral copy numbers normalized to the control (untreated infected cells): 2.076 and 0.9028 and 0.9897
SARS-CoV-2; 100 uM, replicates
  Inhibition (%) of viral copy numbers: 32.89% and 37.84%
  viral copy numbers normalized to the control (untreated infected cells): 0.7145 and 0.6711 and 0.6216
SARS-CoV-2; 250 uM, replicates
  Inhibition (%) of viral copy numbers: 83.75% and 96.5% and 61.73%
  viral copy numbers normalized to the control (untreated infected cells): 0.1625 and 0.03502 and 0.3827
SARS-CoV-2; 500 uM, replicates
  Inhibition (%) of viral copy numbers: 86.97% and 88.23%
  viral copy numbers normalized to the control (untreated infected cells): 0.2487 and 0.1303 and 0.1177
SARS-CoV-2; 750 uM, replicates
  Inhibition (%) of viral copy numbers: 96.17% and 94.15%
  viral copy numbers normalized to the control (untreated infected cells): 0.05523 and 0.03827 and 0.05848
SARS-CoV-2; 1000 uM, replicates
  Inhibition (%) of viral copy numbers: 100% and 99.81%
  viral copy numbers normalized to the control (untreated infected cells): 0.003839 and 0 and 0.001919
SARS-CoV-2; Severe acute respiratory syndrome coronavirus 2, Vero C1008, 100 uM, replicates, read-out: Inhibition (%) of viral copy numbers
  inhibition at 100 µM: 28.5%
SARS-CoV-2; Severe acute respiratory syndrome coronavirus 2, Vero C1008, 500 uM, replicates, read-out: Inhibition (%) of viral copy numbers
  inhibition at 500 µM: 75.1%
SARS-CoV-2; Severe acute respiratory syndrome coronavirus 2, Vero C1008, 750 uM, replicates, read-out: Inhibition (%) of viral copy numbers
  inhibition at 750 µM: 94.5%
SARS-CoV-2; [3]
  inhibition at 1000 µM: 99.6%
SARS-CoV-2; Severe acute respiratory syndrome coronavirus 2, Vero C1008, 48 h
  pEC50: 3.87
SARS-CoV-2
  pEC50: 3.87
  antiviral activity in the cellular assay (in words): high micromolar range; also recorded: Significant antiviral activities
[2]
  X-ray screen result, binding site: identified in the active site

## c1cnc2ncccc2c1 [SX003]
Human 5-HT1A receptor; [4]
  inhibition at 10 µM: 22%
Human 5-HT1A receptor; [5]
  experimental hit status, 5-HT1: 0
Human 5-HT1A receptor; [6]
  inhibition at 10 µM: 22%
Human 5-HT1A receptor; [7]
  inhibition at 10 µM: 22%
Human 5-HT1A receptor; [8]
  inhibition at 10 µM: 24%
Human 5-HT1A receptor; [9]
  inhibition at 10 µM: 21%
Human 5-HT6 receptor; [10]
  inhibition at 10 µM: 48%
Human 5-HT6 receptor; [5]
  experimental hit status, 5-HT6: 0
Human 5-HT6 receptor; [11]
  inhibition at 10 µM: 48%
Human 5-HT6 receptor; [12]
  inhibition at 10 µM: 48%
Human 5-HT6 receptor; [13]
  inhibition at 10 µM: 55%
Human 5-HT6 receptor; [14]
  inhibition at 10 µM: 41%
Human 5-HT7b receptor; [15]
  inhibition at 10 µM: 34%
Human 5-HT7b receptor; [5]
  experimental hit status, 5-HT7: 0
Human 5-HT7b receptor; [16]
  inhibition at 10 µM: 34%
Human 5-HT7b receptor; [17]
  inhibition at 10 µM: 34%
Human 5-HT7b receptor; [18]
  inhibition at 10 µM: 32%
Human 5-HT7b receptor; [19]
  inhibition at 10 µM: 36%
Human thrombin; 1 = hit, 0 = no hit, screening at 200 µM
  experimental hit status, Thrombin: 0
Bovine factor Xa
  experimental hit status, Factor Xa: 0
Recombinant SETD2
  experimental hit status, SETD2: 0
[1]; HTRF assay
  activity in the NSP3 enzyme assay (in words): no activity
SARS-CoV-2
  antiviral activity in the cellular assay (in words): inactive in cells
[2]
  X-ray screen result, binding site: identified in the active site

## Clc1ccc2nnnn2n1 [SX054]
[1]; HTRF assay
  activity in the NSP3 enzyme assay (in words): no activity
SARS-CoV-2
  antiviral activity in the cellular assay (in words): inactive in cells
[2]
  X-ray screen result, binding site: identified in the active site

## NC(=O)N1CCC(C(=O)O)CC1 [SX048]
Human 5-HT1A receptor; [4]
  inhibition at 10 µM: 0.751%
Human 5-HT1A receptor; [6]
  inhibition at 10 µM: 0.751%
Human 5-HT1A receptor; [7]
  inhibition at 10 µM: 0.751%
Human 5-HT1A receptor; [8]
  inhibition at 10 µM: 1.5%
Human 5-HT1A receptor; [9]
  inhibition at 10 µM: 0%
Human 5-HT6 receptor; [10]
  inhibition at 10 µM: 47%
Human 5-HT6 receptor; [11]
  inhibition at 10 µM: 47%
Human 5-HT6 receptor; [12]
  inhibition at 10 µM: 47%
Human 5-HT6 receptor; [13]
  inhibition at 10 µM: 56%
Human 5-HT6 receptor; [14]
  inhibition at 10 µM: 38%
Human 5-HT7b receptor; [15]
  inhibition at 10 µM: 0%
Human 5-HT7b receptor; [16]
  inhibition at 10 µM: -6.41%
Human 5-HT7b receptor; [17]
  inhibition at 10 µM: 0%
Human 5-HT7b receptor; [18]
  inhibition at 10 µM: -8%
Human 5-HT7b receptor; [19]
  inhibition at 10 µM: -4.44%
Human thrombin; plate layout, label = plate position, Cheng-Prusoff, Km 2.6 µM, read-out: Thrombin Ki
  pKi: 3.52
[1]; 98 µM, replicates
  % SARS-CoV-2 macrodomain inhibition: 4.2%
  inhibition at 98 µM: 5.1%
[1]; 195 µM, replicates
  % SARS-CoV-2 macrodomain inhibition: 3.7% and 10.3%
[1]; 391 µM, replicates
  % SARS-CoV-2 macrodomain inhibition: 5.0% and 0.65%
[1]; 781 µM, replicates
  % SARS-CoV-2 macrodomain inhibition: 4.2% and 0.6%
[1]; 1563 µM, replicates
  % SARS-CoV-2 macrodomain inhibition: 5.8%
  inhibition at 1563 µM: 6.6%
[1]; 3125 µM, replicates
  % SARS-CoV-2 macrodomain inhibition: 6.5% and 15.4%
[1]; 6250 µM, replicates
  % SARS-CoV-2 macrodomain inhibition: 80.4%
  inhibition at 6250 µM: 84.7%
[1]; 12500 µM, replicates
  % SARS-CoV-2 macrodomain inhibition: 102.4%
  inhibition at 12500 µM: 102%
[1]; HTRF assay, at 5 mM concentration
  NSP3 inhibition (in words): significant
[1]; IC50, SARS-CoV-2 macrodomain inhibition
  pIC50: 2.26
[1]; NSP3 IC50, HTRF assay
  pIC50: 2.26
SARS-CoV-2; 10 uM, replicates
  viral copy numbers normalized to the control (untreated infected cells): 1.6898 and 2.197 and 1.352
SARS-CoV-2; 100 uM, replicates
  Inhibition (%) of viral copy numbers: 8.992%
  viral copy numbers normalized to the control (untreated infected cells): 1.075 and 1.992 and 0.9101
SARS-CoV-2; 250 uM, replicates
  Inhibition (%) of viral copy numbers: 15.88% and 50.18% and 14.44%
  viral copy numbers normalized to the control (untreated infected cells): 0.8412 and 0.4982 and 0.8556
SARS-CoV-2; 500 uM, replicates
  Inhibition (%) of viral copy numbers: 81.12% and 43.68% and 14.44%
  viral copy numbers normalized to the control (untreated infected cells): 0.1888 and 0.5632 and 0.8556
SARS-CoV-2; 750 uM, replicates
  Inhibition (%) of viral copy numbers: 51.99% and 82.49% and 35.02%
  viral copy numbers normalized to the control (untreated infected cells): 0.4801 and 0.1751 and 0.6498
SARS-CoV-2; 1000 uM, replicates
  Inhibition (%) of viral copy numbers: 41.84% and 41.07%
  viral copy numbers normalized to the control (untreated infected cells): 0.5067 and 0.5816 and 0.5893
SARS-CoV-2; Severe acute respiratory syndrome coronavirus 2, Vero C1008, 10 uM, replicates, read-out: Inhibition (%) of viral copy numbers
  inhibition at 10 µM: 0%
SARS-CoV-2; [3]
  inhibition at 1000 µM: 49.3%
SARS-CoV-2
  antiviral activity in the cellular assay (in words): high micromolar range; also recorded: Significant antiviral activities
[2]
  X-ray screen result, binding site: identified in the active site
